Data published in patent US20090012018A1, “Inhibition of pancretic cancer cell growth” (priority 2004, published 2009).
“Also recorded” adds a separate entry of the source.

What was measured:
[1] = tested on: L3.6sl tumors; assay: Subcutaneous tumor treatment in nude mice; assay type: in vivo, CD-1 nude mice
Procedure: (§1) A total of 0.1 ml Hanks' balanced salt solution and matrigel (1:1) containing 2×10^6 cells was injected subcutaneously into CD-1 nude mice (Charles River Laboratories). Tumors were grown for 4 days to a minimum volume of 125 mm^3. Treatment was initiated simultaneously for all subjects. Mice were injected with vector alone (peanut oil: PBS 7:3 v/v) or with a sulindac solution (3 mg/mouse/day) daily for 5 days. Sulindac sulfone was administered orally (1.5 mg/mouse/day). At the end of the treatment period, tumors were excised from mice, weighed and photographed.
Individual or combined treatment was initiated after tumors were palpable.

[2] = tested on: Tcf1; assay: Immunofluorescence of Tcf expression in pancreatic cancer cells; assay type: cell-based, human; settings: pancreatic cancer cells (Panc4.21); cyclopamine for 24 hrs (FIG. 4C) or sulindac-treated
[3] = tested on: Tcf4; assay: as above; assay type: cell-based, human; settings: cyclopamine for 24 hrs (FIG. 4C) or sulindac-treated
[4] = tested on: pancreatic adenocarcinoma cell lines; assay: Growth, BrdU incorporation and apoptosis of pancreatic cancer cell lines (results stated for the lines together); assay type: cell-based, human; settings: 7/13 lines
Procedure: (§2) The small chemical inhibitors were used at the following final concentrations: up to 250 μM for sulindac (Sigma), up to 300 μM for sulindac sulfone (Calbiochem or ICN), NS-398 up to 25 μM (Calbiochem), sodium salicylate up to 100 μM (Calbiochem). […] To test for drug sensitivity, the cells were plated in control medium or in medium containing the drug of interest for 2 to 5 days. The culture media was changed every 48 hrs. The images showing cell morphology were taken with a Nikon inverted microscope.
(§3) Cells were pulsed with 10 μM BrdU for two hours and then harvested and fixed. BrdU incorporation was detected with a fluorescein isothiocyanate conjugated anti-BrdU antibody (BD Biosciences) and total DNA was stained with 7-AAD (BD Biosciences). FACS analysis was performed according to the BD Biosciences BrdU flow kit manual. Cells in S-phase were defined as the BrdU-positive cell population with a DNA content between 2N and 4N. According to the manual, apoptotic cells were defined as a subpopulation of G0/G1 cells with DNA content lower than the diploid amount (<2N).
The cell lines were plated the day prior to transfection at a density of 8×10^4 cells/well in a 24-well plate. The luciferase reporter constructs used included: Top-Flash and Fop-Flash containing multimerized Tcf-Lef binding sites or nonfunctional sites, respectively; TK-Luc (Promega); and GliBS containing 8×Gli binding sites upstream of the TK minimal promoter (Sasaki et al., Development, 124:1313-1322, 1997). In different experiments, the reporter constructs were co-transfected with an expression vector containing a dominant-negative form of Lef1 or the endogenous Wnt inhibitor Icat. The dominant negative Lef1 (gift from S. Pleasure) was generated by cloning the 63 amino acid N-terminal deleted form of Lef1 into the pEF5 plasmid. This construct also contains an IRES-EGFP cassette. The cDNA coding for the Icat protein was cloned into pIRES2-EGFP (BD Biosciences Clontech). Transfections were performed using the Effectene transfection reagent […] according to the user's manual. A Renilla luciferase plasmid (Promega) was included to control for transfection efficiency. Transfected cells were cultured in medium containing serum. […] Cells were harvested 24 hrs after transfection, and luciferase activity was assayed using the Dual Luciferase kit (Promega), according to the user's manual.
Small interfering RNA (siRNA) oligonucleotides against β-catenin containing two thymidine residues (dTdT) at the 3′ end of the sequence (5′-[…] […] T-3′ set forth as SEQ ID NO:57) were used for treatment of cancer cells as described (Verma et al., Clin Cancer Res, 9:1291-1300, 2003). The GLI1 siRNA (sense 5′-[…] […]-3′ set forth as SEQ ID NO:58) was also used as described (Sanchez et al., Proc Natl Acad Sci USA 101:12561-12566, 2004). Small interfering RNA against GLI2 was ordered against the target sequence 5-[…] […] A-3′, set forth as SEQ ID NO:59). […] Cells were transfected with oligofectamine (Invitrogen) according to the user's manual, with a final siRNA concentration of 100 or 300 nM. Transfected cells were incubated for 48 hrs before harvesting.

[5] = tested on: Panc4.21; assay: Sensitivity of pancreatic adenocarcinoma cells to drug treatment (cell proliferation, apoptosis); assay type: cell-based, human
Procedure: (§4) Human pancreatic adenocarcinoma cell lines HPAC, SW1990, Mpanc-96, SU86.86, PL45, Panc10.05 Panc2.03 and Panc8.13 were obtained from ATCC; cell lines MiaPaCa2, Panc1, CFPAC-1, HPAFII, Capan-2, AsPC1, Hs766T and BxPC3 were a gift from Schering Plough; cell lines COLO357, L3.3, L3.6 pl and L3.6 sl were a gift from I. Fidler; cell lines Panc3.27, Panc4.21, Panc5.04, Panc2.13, Panc1.28 and Panc6.03 were a gift from E. Jaffee. BxPC3 and the Panc cell lines were grown in RPMI medium (Gibco) supplemented with 10% FBS, L-glutamine and penicillin/streptomycin; medium for the Panc cells was also supplemented with insulin-transferrin-selenium (Gibco). The CFPAC-1, Panc1, AsPC1, Hs766T, L3.6sl and L3.6pl were grown in DMEM without phenol red (CellGro), supplemented with 10% FBS. Derivation and culture of PDC cells was as described (Schreiber et al., Gastroenterology, 127:250-260, 2004).
as §2, §3

[6] = tested on: L3.6sl; assay: as above; assay type: cell-based, human
Procedure: as §4, §2, §3

[7] = tested on: BxPC3; assay: as above; assay type: cell-based, human
Procedure: as §4, §2, §3

[8] = tested on: Panc6.03; assay: Sensitivity of pancreatic adenocarcinoma cells to drug treatment (cell proliferation); assay type: cell-based, human; settings: reduction in cell proliferation
Procedure: (§5) The culture media was changed every 48 hrs.
as §3

[9] = tested on: Panc2.03; assay: as above; assay type: cell-based, human; settings: reduction in cell proliferation
Procedure: as §5, §3

[10] = tested on: L3.6pl; assay: as above; assay type: cell-based, human; settings: reduction in cell proliferation
Procedure: as §5, §3

[11] = tested on: Panc3.27; assay: as above; assay type: cell-based, human; settings: reduction in cell proliferation
Procedure: as §5, §3

[12] = tested on: CFPAC-1 tumors; assay: Subcutaneous tumor treatment in nude mice; assay type: in vivo, CD-1 nude mice; settings: treated for five days vs controls, sulindac 3 mg/mouse/day injected, sulindac sulfone 1.5 mg/mouse/day orally
Procedure: as §1

[13] = tested on: BxPC3 tumors; assay: Subcutaneous tumor treatment in nude mice; assay type: in vivo, CD-1 nude mice
Procedure: as §1

[14] = sulindac 3 mg/mouse/day injected daily for 5 days
[15] = treated for five days vs untreated controls, sulindac 3 mg/mouse/day injected, sulindac sulfone 1.5 mg/mouse/day orally
[16] = reduction in cell proliferation

SMILES: CC1=C(CC(=O)O)c2cc(F)ccc2/C1=C\c1ccc([S+](C)[O-])cc1 (stereo not drawn) [sulindac]
- reduction in tumor volume compared to untreated samples [1, 14]: 80%
- tumor growth [1, 15]: strongly reduced
- Tcf1 expression [2]: reduced
- Tcf4 expression [3]: reduced
- lines tested with measurable reduction in cell proliferation [4]: 54%
- induced apoptosis ([5]; concentration dependent): two to four-fold
- Sulindac Sensitivity [5, 16]: Positive
- cell growth ([5]; vs untreated controls, FIG. 3B): strongly inhibits growth
- induced apoptosis ([6]; concentration dependent): two to four-fold
- Sulindac Sensitivity [6, 16]: Positive
- cell growth ([6]; vs untreated controls, FIG. 3B): strongly inhibits growth
- induced apoptosis ([7]; concentration dependent): two to four-fold
- Sulindac Sensitivity [7, 16]: Positive
- cell growth ([7]; vs untreated controls, FIG. 3B): strongly inhibits growth
- Sulindac Sensitivity [8]: Positive
- Sulindac Sensitivity [9]: Positive
- Sulindac Sensitivity [10]: Positive
- Sulindac Sensitivity [11]: Positive
- tumor growth (volume, size) [12]: largely unaffected; also recorded: No reduction
- reduction in tumor volume compared to untreated samples [13, 14]: 80%
- tumor growth [13, 15]: strongly reduced
